Results reported in ChEMBL document CHEMBL3045791, “Pharmacological screening for anti-inflammatory, analgesic activity of pyrazolyl derivatives along with molecular docking studies” (Med Chem Res, 2012).

Columns and labels:
Rattus norvegicus [1] = assay: Analgesic activity in Rattus norvegicus Wistar albino (rat) at 20 mg/kg, ip measured at 30 min by tail immersion method relative to control; type: functional; conditions: route intraperitoneal
Rattus norvegicus [2] = assay: Anti-inflammatory activity in Rattus norvegicus Wistar albino (rat) assessed as inhibition of carrageenan-induced hind paw edema at 10 mg/kg, po measured at 4 hr relative to control; type: functional
Rattus norvegicus [3] = assay: Anti-inflammatory activity in Rattus norvegicus Wistar albino (rat) assessed as inhibition of carrageenan-induced hind paw edema at 10 mg/kg, po measured at 3 hr relative to control; type: functional
Rattus norvegicus [4] = assay: Ulcerogenic activity in Rattus norvegicus Wistar albino (rat) stomach assessed as ulcer index at 30 mg/kg, po measured after 17 hr relative to control; type: toxicity, organism-based; parameters: dose 30 mg/kg, route oral; conditions: in vivo
Rattus norvegicus [5] = assay: Antioxidant activity in Rattus norvegicus Wistar albino (rat) stomach assessed as decrease in malondialdehyde content measured per 100 mg of tissue at 30 mg/kg, po after 60 min by spectrophotometric analysis (reference value: 3.86 +/- 0.19 nmol); type: functional

Compound | Activity (Rattus norvegicus [1]) | inhibition in vivo at 10 mg/kg (Rattus norvegicus [2]) | inhibition in vivo at 10 mg/kg (Rattus norvegicus [3]) | UI (Rattus norvegicus [4]) | Activity (Rattus norvegicus [5])
Cc1nn(-c2ccccc2)c(Cl)c1/C=N/NC(=O)c1ccc([N+](=O)[O-])cc1 | 92.8% | 54.4% | 12.1% | – | –
Cc1nn(-c2ccccc2)c(Cl)c1/C=N/NC(=O)c1ccc(Cl)cc1Cl | 172.6% | 74.7% | 51.5% | – | –
Cc1nn(-c2ccccc2)c(Cl)c1/C=N/NC(=O)COc1ccccc1 | – | – | – | 0.41 | –
Cc1nn(-c2ccccc2)c(Cl)c1/C=N/NC(=O)c1ccc(F)cc1 | 187.8% | 67.1% | 36.4% | – | –
Cc1nn(-c2ccccc2)c(Cl)c1/C=N/NC(=O)c1ccc(Cl)cc1 | 160.4% | 63.3% | 42.4% | 0.25 | 4.51 nmol
Cc1nn(-c2ccccc2)c(Cl)c1/C=N/NC(=O)Cc1cccc2ccccc12 | 116.3% | 55.7% | 42.4% | – | –
Cc1nn(-c2ccccc2)c(Cl)c1/C=N/NC(=O)Cc1ccc(Cl)cc1 | 193.1% | 70.9% | 57.6% | – | –
Cc1nn(-c2ccccc2)c(Cl)c1/C=N/NC(=O)c1ccccc1Cl | 149% | – | – | – | –
Cc1nn(-c2ccccc2)c(Cl)c1/C=N/NC(=O)c1ccc(Br)cc1 | 158.7% | – | – | – | –
O=C(O)Cc1ccccc1Nc1c(Cl)cccc1Cl [DICLOFENAC] | 749.3% | – | – | – | –
COc1ccc2c(c1)c(CC(=O)O)c(C)n2C(=O)c1ccc(Cl)cc1 [INDOMETHACIN] | – | 77.2% | 48.5% | 4.5 | 21.98 nmol
